Assay results reported in ChEMBL document CHEMBL5143597, “Design and synthesis of novel spirocyclic carboxylic acids as potent and orally bioavailable DGAT1 inhibitors and their biological evaluation” (Bioorg Med Chem Lett, 2022).

Legend:
[1] = Drug distribution in Wistar rat plasma 10 mg/kg, po and measured at 2 hrs post dose by LC-MS/MS analysis; format: ADME, organism-based
[2] = Plasma protein binding in mouse; format: ADME, cell-free; conditions: read-out: PPB (converted)
[3] = Drug distribution in Wistar rat plasma 10 mg/kg, po and measured at 1 hrs post dose by LC-MS/MS analysis; format: ADME, organism-based
[4] = Drug distribution in C57BL/6 mouse skeletal muscle 10 mg/kg, po and measured at 8 hrs post dose by LC-MS/MS analysis; format: ADME, organism-based, Skeletal muscle tissue; conditions: read-out: Ct
[5] = Drug distribution in Wistar rat liver 10 mg/kg, po and measured at 8 hrs post dose by LC-MS/MS analysis; format: ADME, organism-based; conditions: read-out: Ct
[6] = Drug distribution in C57BL/6 mouse adipose tissue 10 mg/kg, po and measured at 1 hrs post dose by LC-MS/MS analysis; format: ADME, organism-based; conditions: read-out: Ct
[7] = Drug distribution in C57BL/6 mouse brain 10 mg/kg, po and measured at 8 hrs post dose by LC-MS/MS analysis; format: ADME, organism-based; conditions: read-out: Ct
[8] = Oral bioavailability in Wistar rat at 10 mg/kg or 3 mg/kg, iv and measured up to 24 hrs by LC-MS/MS analysis; format: ADME, organism-based; conditions: in vivo
[9] = Metabolic stability in rat liver microsomes assessed as parent compound remaining at 1 uM and measured at 30 mins by LC-MS/MS analysis; format: ADME, Microsome; conditions: read-out: Stability
[10] = Drug distribution in C57BL/6 mouse plasma 10 mg/kg, po and measured at 1 hrs post dose by LC-MS/MS analysis; format: ADME, organism-based
[11] = Metabolic stability in human liver microsomes assessed as parent compound remaining at 1 uM and measured at 30 mins by LC-MS/MS analysis; format: ADME, Microsome; conditions: read-out: Stability
[12] = Drug distribution in C57BL/6 mouse adipose tissue 10 mg/kg, po and measured at 8 hrs post dose by LC-MS/MS analysis; format: ADME, organism-based; conditions: read-out: Ct
[13] = Drug distribution in C57BL/6 mouse liver 10 mg/kg, po and measured at 2 hrs post dose by LC-MS/MS analysis; format: ADME, organism-based; conditions: read-out: Ct
[14] = Drug distribution in Wistar rat adipose tissue 10 mg/kg, po and measured at 1 hrs post dose by LC-MS/MS analysis; format: ADME, organism-based; conditions: read-out: Ct
[15] = Drug distribution in Wistar rat plasma 10 mg/kg, po and measured at 8 hrs post dose by LC-MS/MS analysis; format: ADME, organism-based
[16] = Oral bioavailability in C57BL/6 mouse 10 mg/kg or 5 mg/kg, iv and measured up to 24 hrs by LC-MS/MS analysis; format: ADME, organism-based; conditions: in vivo
[17] = Half life in Wistar rat at 3 mg/kg, iv or 10 mg/kg, po and measured up to 24 hrs by LC-MS/MS analysis; format: ADME, organism-based; conditions: in vivo
[18] = Plasma protein binding in rat; format: ADME, cell-free; conditions: read-out: PPB
[19] = AUC in Wistar rat at 3 mg/kg, iv or 10 mg/kg, po and measured up to 24 hrs by LC-MS/MS analysis; format: ADME, organism-based; parameters: dose 3 mg/kg, time < 24 hrs, route iv; conditions: in vivo
[20] = Clearance in Wistar rat at 3 mg/kg, iv or 10 mg/kg, po and measured up to 24 hrs by LC-MS/MS analysis; format: ADME, organism-based; conditions: in vivo
[21] = Volume of distribution at steady state in Wistar rat at 3 mg/kg, iv or 10 mg/kg, po and measured up to 24 hrs by LC-MS/MS analysis; format: ADME, organism-based; conditions: in vivo, read-out: Vdss
[22] = Metabolic stability in mouse liver microsomes assessed as parent compound remaining at 1 uM and measured at 30 mins by LC-MS/MS analysis; format: ADME, Microsome; conditions: read-out: Stability
[23] = Drug distribution in C57BL/6 mouse plasma 10 mg/kg, po and measured at 2 hrs post dose by LC-MS/MS analysis; format: ADME, organism-based
hERG (KCNH2) = hERG (KCNH2) (Homo sapiens, UniProt Q12809); test: Displacement of [3H]astemizole from human ERG expressed in HEK293 cell membrane at 30 uM for 2 hrs by Radiometric displacement assay; format: toxicity; conditions: HEK293 cell membranes that express hERG, probe [3H]astemizole
[24] = Drug distribution in C57BL/6 mouse liver 10 mg/kg, po and measured at 8 hrs post dose by LC-MS/MS analysis; format: ADME, organism-based; conditions: read-out: Ct
[25] = Half life in C57BL/6 mouse at 5 mg/kg, iv or 10 mg/kg, po and measured up to 24 hrs by LC-MS/MS analysis; format: ADME, organism-based; conditions: in vivo
[26] = Drug distribution in C57BL/6 mouse skeletal muscle 10 mg/kg, po and measured at 2 hrs post dose by LC-MS/MS analysis; format: ADME, organism-based, Skeletal muscle tissue; conditions: read-out: Ct
[27] = Volume of distribution at steady state in C57BL/6 mouse at 5 mg/kg, iv or 10 mg/kg, po and measured up to 24 hrs by LC-MS/MS analysis; format: ADME, organism-based; conditions: in vivo, read-out: Vdss
[28] = Tmax in Wistar rat at 3 mg/kg, iv or 10 mg/kg, po and measured up to 24 hrs by LC-MS/MS analysis; format: ADME, organism-based; conditions: in vivo
[29] = Drug distribution in C57BL/6 mouse plasma 10 mg/kg, po and measured at 8 hrs post dose by LC-MS/MS analysis; format: ADME, organism-based
[30] = Drug distribution in Wistar rat liver 10 mg/kg, po and measured at 2 hrs post dose by LC-MS/MS analysis; format: ADME, organism-based; conditions: read-out: Ct
[31] = Drug distribution in Wistar rat liver 10 mg/kg, po and measured at 1 hrs post dose by LC-MS/MS analysis; format: ADME, organism-based; conditions: read-out: Ct
[32] = Cmax in C57BL/6 mouse at 5 mg/kg, iv or 10 mg/kg, po and measured up to 24 hrs by LC-MS/MS analysis; format: ADME, organism-based; parameters: dose 5 mg/kg, time < 24 hrs, route iv; conditions: in vivo
[33] = Clearance in C57BL/6 mouse at 5 mg/kg, iv r 10 mg/kg, po and measured up to 24 hrs by LC-MS/MS analysis; format: ADME, organism-based; conditions: in vivo
[34] = AUC in C57BL/6 mouse at 5 mg/kg, iv or 10 mg/kg, po and measured up to 24 hrs by LC-MS/MS analysis; format: ADME, organism-based; parameters: time < 24 hrs, dose 5 mg/kg, route iv; conditions: in vivo
[35] = Drug distribution in C57BL/6 mouse skeletal muscle 10 mg/kg, po and measured at 1 hrs post dose by LC-MS/MS analysis; format: ADME, organism-based, Skeletal muscle tissue; conditions: read-out: Ct
[36] = Tmax in C57BL/6 mouse at 5 mg/kg, iv or 10 mg/kg, po and measured up to 24 hrs by LC-MS/MS analysis; format: ADME, organism-based; conditions: in vivo
[37] = Drug distribution in Wistar rat adipose tissue 10 mg/kg, po and measured at 8 hrs post dose by LC-MS/MS analysis; format: ADME, organism-based; conditions: read-out: Ct
[38] = Drug distribution in C57BL/6 mouse brain 10 mg/kg, po and measured at 2 hrs post dose by LC-MS/MS analysis; format: ADME, organism-based; conditions: read-out: Ct
[39] = Drug distribution in C57BL/6 mouse brain 10 mg/kg, po and measured at 1 hrs post dose by LC-MS/MS analysis; format: ADME, organism-based; conditions: read-out: Ct
[40] = Drug distribution in C57BL/6 mouse liver 10 mg/kg, po and measured at 1 hrs post dose by LC-MS/MS analysis; format: ADME, organism-based; conditions: read-out: Ct
[41] = Cmax in Wistar rat at 3 mg/kg, iv or 10 mg/kg, po and measured up to 24 hrs by LC-MS/MS analysis; format: ADME, organism-based; parameters: dose 3 mg/kg, time < 24 hrs, route iv; conditions: in vivo
[42] = Drug distribution in Wistar rat adipose tissue 10 mg/kg, po and measured at 2 hrs post dose by LC-MS/MS analysis; format: ADME, organism-based; conditions: read-out: Ct
[43] = Drug distribution in C57BL/6 mouse adipose tissue 10 mg/kg, po and measured at 2 hrs post dose by LC-MS/MS analysis; format: ADME, organism-based; conditions: read-out: Ct
[44] = Apparent permeability across apical to basolateral side in MDCK cells at 2.5 uM for 90 mins; format: ADME, cell-based, Canis lupus familiaris; conditions: dog

hERG (KCNH2), sequence (Q12809 whole entry): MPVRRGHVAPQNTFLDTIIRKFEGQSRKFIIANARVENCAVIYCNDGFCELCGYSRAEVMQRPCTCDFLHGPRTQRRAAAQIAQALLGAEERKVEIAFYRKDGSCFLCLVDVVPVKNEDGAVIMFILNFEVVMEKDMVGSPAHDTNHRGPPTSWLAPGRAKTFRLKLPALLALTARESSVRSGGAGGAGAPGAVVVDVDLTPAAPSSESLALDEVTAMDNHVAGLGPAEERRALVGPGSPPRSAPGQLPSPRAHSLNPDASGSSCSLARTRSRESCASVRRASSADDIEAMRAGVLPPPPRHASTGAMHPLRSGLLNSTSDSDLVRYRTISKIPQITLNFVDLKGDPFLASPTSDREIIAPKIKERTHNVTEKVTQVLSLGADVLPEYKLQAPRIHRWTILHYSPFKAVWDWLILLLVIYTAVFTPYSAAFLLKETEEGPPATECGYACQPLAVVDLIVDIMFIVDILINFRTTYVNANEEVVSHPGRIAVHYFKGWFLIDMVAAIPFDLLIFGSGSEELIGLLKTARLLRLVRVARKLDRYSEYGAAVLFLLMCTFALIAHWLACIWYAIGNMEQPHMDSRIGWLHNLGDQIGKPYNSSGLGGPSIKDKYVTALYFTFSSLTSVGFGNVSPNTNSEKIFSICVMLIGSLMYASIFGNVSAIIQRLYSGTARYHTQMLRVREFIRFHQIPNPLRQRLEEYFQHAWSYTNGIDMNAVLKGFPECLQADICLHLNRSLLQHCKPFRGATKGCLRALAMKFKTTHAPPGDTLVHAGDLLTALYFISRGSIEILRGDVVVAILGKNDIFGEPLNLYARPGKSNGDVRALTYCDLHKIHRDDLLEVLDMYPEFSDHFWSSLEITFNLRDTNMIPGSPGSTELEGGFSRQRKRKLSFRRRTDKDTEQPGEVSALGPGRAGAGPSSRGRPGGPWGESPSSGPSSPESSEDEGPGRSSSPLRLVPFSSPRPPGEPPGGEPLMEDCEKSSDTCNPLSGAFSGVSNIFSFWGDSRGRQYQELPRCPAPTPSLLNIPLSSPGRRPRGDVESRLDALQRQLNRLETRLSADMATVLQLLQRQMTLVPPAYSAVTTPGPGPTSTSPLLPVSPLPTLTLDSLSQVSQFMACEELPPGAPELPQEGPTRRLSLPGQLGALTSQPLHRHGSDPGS

O=C(Nc1ccc(N2CCC3(CC2)CC(C(=O)O)C3)nc1)c1nnc(Nc2ccc(F)c(F)c2)o1
concentration at 2 h [1]: 47 µM | fraction unbound [2]: 0.02 | concentration at 1 h [3]: 37 µM | concentration at 8 h [4]: 20 nM | concentration at 8 h [5]: 32 µM | concentration at 1 h [6]: 270 nM | concentration at 8 h [7]: 110 nM | bioavailability [8]: 92% | remaining at 0.5 h, 1 µM [9]: 92% | concentration at 1 h [10]: 1900 nM | remaining at 0.5 h, 1 µM [11]: 89% | concentration at 8 h [12]: 80 nM | concentration at 2 h [13]: 96 µM | concentration at 1 h [14]: 1890 nM | concentration at 8 h [15]: 4 µM | bioavailability [16]: 97% | half-life [17]: 210 min | fraction unbound [18]: 0.01 | AUC at 24 h [19]: 47 µM·h | clearance [20]: 2.3 mL/min/kg | Vd [21]: 0.3 L/kg | remaining at 0.5 h, 1 µM [22]: 94% | concentration at 2 h [23]: 1160 nM | inhibition at 2 h, 30 µM (hERG (KCNH2)): 22% | concentration at 8 h [24]: 5.3 µM | half-life [25]: 60 min | concentration at 2 h [26]: 180 nM | Vd [27]: 2.5 L/kg | Tmax [28]: 30 min | concentration at 8 h [29]: 40 nM | concentration at 2 h [30]: 72 µM | concentration at 1 h [31]: 105 µM | Cmax [32]: 4.5 µM | clearance [33]: 58 mL/min/kg | AUC at 24 h [34]: 2.9 µM·h | concentration at 1 h [35]: 170 nM | Tmax [36]: 30 min | concentration at 8 h [37]: 340 nM | concentration at 2 h [38]: 260 nM | concentration at 1 h [39]: 360 nM | concentration at 1 h [40]: 153 µM | Cmax [41]: 57 µM | concentration at 2 h [42]: 2500 nM | concentration at 2 h [43]: 140 nM | Papp A→B at 1.5 h, 2.5 µM [44]: 2.8 ×10⁻⁶ cm/s
